Reference: patent publication US11999723B2, “Pyrazole-containing macrophage migration inhibitory factor inhibitors” (priority 2018, dated 2024)
In brackets after ≈: the same amount, converted by molar mass. Several values for one entry are separate records, joined by “and”; a condition that tells them apart may be missing. Equal values may be shown once. Read-outs that look alike come from different tables or passages of the source.

Legend:
[1] = target: T1, MIF (Homo sapiens (Human), UniProt P14174); assay: HPP tautomerase assay (inhibition of the tautomerase activity of MIF); format: biochemical
Experimental: Inhibition of the tautomerase activity of MIF was measured using the substrate 4-hydroxyphenyl pyruvic acid (HPP) in a procedure largely adapted from previous reports. A solution of HPP (10 mM) in acetate buffer (0.5 M ammonium acetate, pH adjusted to 6.0) was prepared and allowed to incubate overnight in the dark at room temperature to allow for equilibration of the keto and enol forms. Following the incubation period, the HPP solution was stored at 4° C. and used for no more than a week. […] A negative control (containing water and DMSO in lieu of protein and inhibitor, respectively) and a positive control (containing DMSO in lieu of inhibitor) were also prepared. The reaction began upon the addition of HPP solution (final concentration: 1.0 mM and 2.5 mM). […] Absorbance was measured three times for each [inhibitor]-[HPP] combination. […] Reported Ki values represent the average value obtained from two assays performed on different days. (R)-ISO-1 (purchased from Santa Cruz Biotechnology) was used as a control.
Recombinant human MIF was expressed and purified according to published protocols. Briefly, for the purification of MIF, E. coli cell pellets were suspended in lysis buffer (20 mM Tris, pH 7.5; 20 mM sodium chloride; 10% glycerol; 2 mM magnesium chloride; 1 cOmplete mini protease inhibitor cocktail tablet per 250 mL of buffer). The solution was sonicated and centrifuged at 27,000G for 30 mins. The supernatant was filtered through a 0.22 μm syringe filter and loaded on a GE Healthcare Hi-Trap SP HP column in sequence with a GE Healthcare Hi-Trap Q SP column equilibrated with a buffer composed of 20 mM NaCl and 20 mM Tris, pH 7.5. […] To achieve highest purity, the flow-through was further purified with a GE Healthcare Superdex 200 column. The purified protein was concentrated with a 10 kDa centrifugal filter unit to 30 mg/mL, flash-frozen in liquid nitrogen, and stored at −80° C.
As in prior studies, the inhibition constants Ki were determined using HPP as the substrate. […] In addition, the aqueous solubilities of several compounds were measured with a shake-flask procedure.

[2] = Aqueous solubility, shake-flask method; format: physicochemical; conditions: Britton-Robinson buffer at pH 6.5; for solubility at 48 h: 30 °C, aqueous buffer, thermodynamic from solid
Experimental: Aqueous solubility values of selected compounds were obtained via the shake-flask method. The solid sample (1-4 mg) was suspended in 1.5-2.0 mL Britton-Robinson (BR) buffer (0.04 M acetic acid, 0.04 M phosphoric acid, 0.04 M boric acid, pH 6.5). The mixture, containing excess undissolved compound, was stirred at 30° C. for 48 hours. The saturated solution was separated from the precipitate by filtration through a 0.45 μm polyethersulfone membrane (VWR International). The filtrate was diluted with BR buffer if necessary, then cut with an equal volume of DMSO. UV-vis absorbance was measured with an Agilent 8453 UV-visible Spectroscopy System (200-900 nm). Calibration curves were prepared with sample concentrations ranging from 0.24 μg/mL-0.25 mg/mL in 50:50 DMSO/BR buffer. Reported solubility results are the average values of two shake-flask experiments run in parallel. Piroxicam (purchased from Sigma-Aldrich) was used as a control, using BR buffer at pH 3.73.
The compounds reported here are listed in Table 2 along with the results from the tautomerase assay. The identity of assayed compounds was confirmed by ^1H and ^13C NMR and high-resolution mass spectrometry; HPLC analyses established purity as >95%. As in prior studies, the inhibition constants Ki were determined using HPP as the substrate. Inhibitory activity is monitored by measuring formation of the borate complex of the enol product at 305 nm using a Tecan Infinite F500 plate reader. In addition, the aqueous solubilities of several compounds were measured with a shake-flask procedure. Saturated solutions are filtered (polyethersulfone syringe, 0.2 μm pore) and analyzed by UV-vis spectroscopy (Agilent 8453).

[3] = target: T1, MIF; assay: Tautomerase assay using 4-hydroxyphenylpyruvate (HPP), initial virtual screening study; format: biochemical; conditions: at 50 μM; HPP substrate
Source text: Success in the past has come from exchange of the phenol for a 6:5 fused heteroaromatic incorporating a pyrrole or pyrazole that retains the hydrogen-bond donating character of phenol. However, the MIF active site is too constricted near Asn97 for this approach to be viable; addition of a methyl group ortho to the hydroxyl group for the compound in FIG. 1 leads to a ca. 100-fold loss in activity. Instead, interest has focused on direct replacement of the phenol by a pyrazole. […] Thus, an alternative series from the virtual screening and from de novo design was pursued, which provided the biaryltriazoles including 2. However, interest in 5 was renewed since in another phenol-containing inhibitor series rapid metabolic glucoronidation and sulfation were observed. It was decided to retest 5 in an HPP tautomerase assay using optimized protocols.

[4] = HPP as substrate, MIF tautomerase, read-out: Experimental inhibition constants, Ki
[5] = Table 3, HPP as substrate, unit inferred, read-out: HPP Ki

T1 sequence (P14174 2-115): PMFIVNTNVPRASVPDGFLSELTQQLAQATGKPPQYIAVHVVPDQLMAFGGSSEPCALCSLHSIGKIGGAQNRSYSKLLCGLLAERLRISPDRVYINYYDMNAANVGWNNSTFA

SMILES | Ki [1, 4] [nM] | solubility at 48 h [2] | Ki [1, 5] [nM] | also measured
CCOc1ccc(-c2cccc(Oc3ccc(-c4c[nH]nc4F)cc3C(=O)O)c2)cc1 [Compound 8w, 2-((4′-Ethoxy-[1,1′-biphenyl]-3-yl)oxy)-5-(3-fluoro-1H-pyrazol-4-yl)benzoic acid] | 75 | 1.7 ± 0.7 µg/mL (≈ 4.06 µM) |  | Ki [1]: ~70 nM
O=C(O)c1cc(-c2cn[nH]c2)ccc1Oc1ccc2ccccc2c1 [Compound 8g, 2-(Naphthalen-2-yloxy)-5-(1H-pyrazol-4-yl)benzoic acid] | 4300 | 739 µg/mL (≈ 2240 µM) |  | 
O=C(O)c1cccc(-c2cn[nH]c2)c1 [Compound 5, reference compound] |  |  |  | aqueous solubility [2]: 927+88 μg/mL; maximum inhibition [3]: 30%
O=C(O)c1cc(-c2c[nH]nc2F)ccc1Oc1ccc2ccccc2c1 [Compound 8n, 5-(3-Fluoro-1H-pyrazol-4-yl)-2-(naphthalen-2-yloxy)benzoic acid] |  | 681 µg/mL (≈ 1960 µM) |  | 
NS(=O)(=O)c1cc(-c2cn[nH]c2)ccc1Oc1ccc2ccccc2c1 [Compound 8i, 2-(Naphthalen-2-yloxy)-5-(1H-pyrazol-4-yl)benzenesulfonamide] | 5600 | 55.2 µg/mL (≈ 151 µM) |  | 
O=C(O)c1cc(-c2c[nH]nc2F)ccc1Oc1cccc(-c2ccc(OCCCN3CCOCC3)cc2)c1 [Compound 8x, 5-(3-Fluoro-1H-pyrazol-4-yl)-2-((4′-(3-morpholinopropoxy)-[1,1′-biphenyl]-3-yl)oxy)benzoic acid] |  | 34.6 µg/mL and 67 µM |  | 
O=C(O)c1cc(-c2c[nH]nc2F)ccc1Oc1cccc(-c2ncccn2)c1 [Compound 9aa, 5-(3-fluoro-1H-pyrazol-4-yl)-2-(3-(pyrimidin-2-yl)phenoxy)benzoic acid] |  |  | 230 | 
CS(=O)(=O)c1cc(-c2cn[nH]c2)ccc1Oc1ccc2ccccc2c1 [Compound 8h, 4-(3-(Methylsulfonyl)-4-(naphthalen-2-yloxy)phenyl)-1H-pyrazole] | 6400 |  |  | 
Cc1ccc2ccc(Oc3ccc(-c4cn[nH]c4)cc3C(=O)O)cc2c1 [Compound 9u, 2-((7-methylnaphthalen-2-yl)oxy)-5-(1H-pyrazol-4-yl)benzoic acid] |  |  | 1900 | 
Cc1cccc(Oc2ccc(-c3cn[nH]c3)cc2C(=O)O)c1 [Compound 8c, 5-(1H-Pyrazol-4-yl)-2-(m-tolyloxy)benzoic acid] | 3800 |  |  | 
O=C(O)c1cc(-c2c[nH]nc2F)ccc1Oc1ccc2ccoc2c1 [Compound 9s, 2-(benzofuran-6-yloxy)-5-(3-fluoro-1H-pyrazol-4-yl)benzoic acid] |  |  | 570 | 
O=C(O)c1cc(-c2cn[nH]c2)ccc1Oc1ccc2occc2c1 [Compound 9o, 2-(benzofuran-5-yloxy)-5-(1H-pyrazol-4-yl)benzoic acid] |  |  | 3800 | 
